Assay in all cases: radioligand binding, Q-sepharose adsorption, scintillation counting
Assay [1] has as its target T1, Pry1 CAP domain (Saccharomyces cerevisiae, UniProt P47032).
T1 sequence (P47032 20-299 limits assumed): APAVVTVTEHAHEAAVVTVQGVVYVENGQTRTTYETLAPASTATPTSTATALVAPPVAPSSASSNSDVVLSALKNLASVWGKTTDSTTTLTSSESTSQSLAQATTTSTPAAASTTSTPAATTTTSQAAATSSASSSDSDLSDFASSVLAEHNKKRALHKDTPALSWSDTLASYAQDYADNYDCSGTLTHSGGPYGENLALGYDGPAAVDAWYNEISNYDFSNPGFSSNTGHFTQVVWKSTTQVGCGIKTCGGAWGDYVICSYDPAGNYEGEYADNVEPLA
An excerpt:
radioligand binding, Q-sepharose adsorption, scintillation counting on Pry1 CAP domain | Polyhistidine-tagged versions of the CAP domain of Pry1, Pry3 and mutant versions of Pry3 | The affinity of Pry3 to palmitic acid is thus similar to that of Pry1

For assay [2], the target named is T2, Pry3 CAP domain (Pry3-CAP) (Saccharomyces cerevisiae, UniProt P47033).
T2 sequence (P47033 18-161): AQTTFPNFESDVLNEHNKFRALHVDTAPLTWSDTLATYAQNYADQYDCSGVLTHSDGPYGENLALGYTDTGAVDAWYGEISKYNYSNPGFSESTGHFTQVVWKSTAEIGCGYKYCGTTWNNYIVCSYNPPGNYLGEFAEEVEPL

The target in assay [3] is T3, Pry3 CAP domain (Pry3-CAP) (Saccharomyces cerevisiae, UniProt P47033, C142S).
T3 sequence (P47033 18-161 C142S): T2 sequence (P47033 18-161) with C125S
The note with it: labelled compound; 20 mM Tris pH 7.5, 30 mM NaCl, 0.05% Triton X-100, 30°C, 1 h.

Assay [4] concerns the target T4, Pry3 CAP domain (Pry3-CAP) (Saccharomyces cerevisiae, UniProt P47033, P105C/A155C).
T4 sequence (P47033 18-161 P105C/A155C): T2 sequence (P47033 18-161) with P88C, A138C
The note with it: labelled compound; 20 mM Tris pH 7.5, 30 mM NaCl, 0.05% Triton X-100, 30°C, 1 h.

Assay [5] addresses T5, Pry3 CAP domain (Pry3-CAP) (Saccharomyces cerevisiae, UniProt P47033, V117M).
T5 sequence (P47033 18-161 V117M): T2 sequence (P47033 18-161) with V100M
The note with it: labelled compound; 20 mM Tris pH 7.5, 30 mM NaCl, 0.05% Triton X-100, 30°C, 1 h.

Changes are numbered by the printed parent chain. pKd: −log10 of the molar value. Like-named read-outs stand apart in the source and are kept apart here.

A word on the pKd: it is the negative decadic logarithm of the Kd, by convention in mol/L. Consider `CC(C)CCC[C@@H](C)[C@H]1CC[C@H]2[C@@H]3CC=C4C[C@@H](O)CC[C@]4(C)[C@H]3CC[C@]12C` [cholesterol], for which the pKd is 5.73 in assay [1] (labelled compound, 20 mM Tris pH 7.5, 30 mM NaCl, 0.05% Triton X-100, 30°C, 1 h) and 4.88 in assay [2]. Further, the “radioligand binding, Q-sepharose adsorption, scintillation counting” value in assay [3] is “as present in Pry3-CAP^C142S, disrupted sterol binding in vitro”; in assay [4], “decreased sterol-binding of Pry3-CAP^P105C, A155C to background levels”.

On to `CCCCCCCCCCCCCCCC(=O)O` [palmitic acid], for which the pKd in assay [1] is 3.95; in assay [2], 3.94. In addition, the “radioligand binding, Q-sepharose adsorption, scintillation counting” value in assay [5] was “Pry3^V117M failed to efficiently bind palmitic acid in vitro”.

The values are drawn from PMC7340583, “The yeast cell wall protein Pry3 inhibits mating through highly conserved residues within the CAP domain” (Biology Open, 2020).
